Test results published in BindingDB's records for patent US20240246981 (Boehringer Ingelheim International, 2024).

How the values were obtained:
[1] = target: Glutaminyl-peptide cyclotransferase (Homo sapiens, UniProt Q16769); test: Biochemical QPCT and QPCTL Activity Assay
Description: (§1) QPCT or QPCTL dependent conversion of N-terminal glutamine to pyroglutamate of CD47 was monitored via MALDI-TOF MS. Test compounds were dissolved in 100% DMSO and serially diluted into clear 1,536-well microtiter plates. Enzymatic reactions were set up in assay buffer containing 20 mM Tris pH 7.5, 0.1 mM TCEP, 0.01% BSA, and 0.001% Tween20. […] The plates were incubated for 10 min in a humidified incubator at 24° C. Subsequently, 2.5 μL of CD47 peptide substrate surrogate (19[…]33) was added to each well (final concentration: 10 μM for QPCTL/20 μM for QPCT). The plates were mixed for 30 sec at 1,000 rpm and subsequently incubated for 40 min in a humidified incubator at 24° C. […] The plates were sealed with an adhesive foil, mixed for 30 s at 1,000 rpm and stored at room temperature until preparation of the MALDI target plates. MALDI target plates were prepared as described previously.

[2] = target: Glutaminyl-peptide cyclotransferase-like protein (Homo sapiens, UniProt Q9NXS2); test: Biochemical QPCT and QPCTL Activity Assay
Sequence of Glutaminyl-peptide cyclotransferase-like protein (Q9NXS2 whole entry): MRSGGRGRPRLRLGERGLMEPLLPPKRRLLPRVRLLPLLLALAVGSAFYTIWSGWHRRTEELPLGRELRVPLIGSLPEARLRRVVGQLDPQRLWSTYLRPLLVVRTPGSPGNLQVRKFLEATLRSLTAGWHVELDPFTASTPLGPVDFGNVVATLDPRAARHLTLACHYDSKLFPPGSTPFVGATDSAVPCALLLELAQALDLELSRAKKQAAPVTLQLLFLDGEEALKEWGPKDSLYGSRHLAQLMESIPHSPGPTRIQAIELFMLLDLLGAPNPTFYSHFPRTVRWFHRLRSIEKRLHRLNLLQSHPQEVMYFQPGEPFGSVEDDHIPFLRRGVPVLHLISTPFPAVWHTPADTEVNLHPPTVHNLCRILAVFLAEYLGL
Description: as §1

Sequence of Glutaminyl-peptide cyclotransferase (Q16769 whole entry): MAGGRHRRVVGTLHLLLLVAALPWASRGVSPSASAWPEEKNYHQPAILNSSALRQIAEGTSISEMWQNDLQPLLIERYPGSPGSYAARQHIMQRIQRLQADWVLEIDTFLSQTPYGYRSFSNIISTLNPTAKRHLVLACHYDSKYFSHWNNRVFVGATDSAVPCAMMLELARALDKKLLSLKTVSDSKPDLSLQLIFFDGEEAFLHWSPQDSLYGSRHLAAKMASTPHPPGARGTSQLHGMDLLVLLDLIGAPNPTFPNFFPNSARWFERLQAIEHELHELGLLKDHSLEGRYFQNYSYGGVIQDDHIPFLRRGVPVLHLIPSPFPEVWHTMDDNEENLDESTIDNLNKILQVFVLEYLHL

Row | SMILES | IC50 [1] | IC50 [2]
1 | Cn1cnnc1C1CCN(c2c(C#N)cccc2-c2cncc(-c3ccccc3)c2)CC1 [US20240246981, Example 21] | 195 nM | 50 nM
2 | Cn1cnnc1C1CCN(c2c(C#N)cccc2-c2cnc(F)c(OC3CCC3)c2)CC1 [US20240246981, Example 34] | 6 nM | 1 nM
3 | Cn1cnnc1C1CCN(c2c(C#N)cccc2-c2cnc3nn(C)c(C(F)(F)F)c3c2)CC1 [US20240246981, Example 41] | 9 nM | 
4 | Cn1cnnc1C1(F)CCN(c2c(C#N)cccc2-c2cnc3nn(CC(F)(F)F)cc3c2)CC1 [US20240246981, Example 55] |  | 1 nM
5 | Cn1cnnc1C1(F)CCN(c2c(C#N)cccc2-c2cnc(=O)n(C)c2)CC1 [US20240246981, Example 58] |  | 1 nM
6 | Cn1cnnc1C1(C)CCN(c2c(C#N)cccc2-c2cccnc2)CC1 [US20240246981, Example 65] | 9 nM | 26 nM

More lines, in order of falling IC50 [2], values ahead:

Row | IC50 [1] | IC50 [2] | SMILES
7 | 162 nM | 31 nM | Cn1cnnc1C1CCN(c2c(C#N)cccc2-c2cncc(OC(F)F)c2)CC1 [US20240246981, Example 23]
8 |  | 13 nM | Cn1cnnc1C1CCN(c2c(C#N)cccc2-c2cnc(F)c(Oc3ccccc3)c2)CC1 [US20240246981, Example 38]
9 | 28 nM | 8 nM | Cn1cnnc1C1CCN(c2c(C#N)cccc2-c2cnc(F)c(OC(F)F)c2)CC1 [US20240246981, Example 37]
